Assays:
[1] = Particle size and polydispersity index of nanoparticle compositions (Zetasizer Nano ZS); assay type: physicochemical; details: for particle size, rank within the named table (in words): comparison amongst compositions
Outline: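 Measured in 1×PBS by Zetasizer Nano ZS.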

[2] = Encapsulation efficiency of RNA (QUANT-IT RIBOGREEN RNA assay); assay type: physicochemical
Outline: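 RiboGreen fluorescence (ex ~480, em ~520 nm) measured after 15 min at 37 °C on samples at ~5 μg/mL in TE, pH 7.5, ± 2% Triton X-100 solution. After blank subtraction, free RNA is given as intact-sample signal divided by disrupted-sample signal.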

[3] = tested on: luciferase (Luc) mRNA expression; assay: Expression of Luc induced by sample formulations, whole-body bioluminescence after intravenous administration; assay type: in vivo; details: mice, i.v., 0.5 mg/kg
Outline: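 Read-out is whole-body bioluminescence at 3, 6 and 24 h after a single intravenous dose of 0.5 mg/kg Luc mRNA in nanoparticle formulations. Groups of n=6 mice; PBS and standard MC3 formulation as references.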

IP-10 = assay: Cytokine production induced by sample formulations: IP-10; assay type: in vivo; details: mice, i.v., 0.5 mpk, 6 hours; for IP-10: in pg/mL (unit assumed)
Outline: (§1)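 Cytokine levels were quantified at 6 hours in mice given the nanoparticle compositions i.v. at 0.5 mpk. MC3 standard formulation and PBS served as comparators.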

[4] = tested on: modified luciferase expression; assay: Expression of Luc in different organs (liver, lung, spleen, femur) 6 hours after intravenous administration; assay type: in vivo; details: i.v., 0.5 mpk
Protocol: The efficacy of the nanoparticle compositions presented in Tables 1, 1a, 17-1, 19-1, 20-1 and 21-1 was further evaluated by measuring the expression of modified luciferase in the liver, lung, spleen, and femur upon administration of a given composition. Formulations were administered intravenously to mice (n=3) at a dosage of 0.5 mpk and bioluminescence measured after 6 hours. The standard MC3 formulation and a PBS control were also tested.

IL-6 = assay: Cytokine production induced by sample formulations: IL-6; assay type: in vivo; details: mice, i.v., 0.5 mpk, 6 hours; for IL-6: in pg/mL (unit assumed)
Outline: as §1

[5] = pKa of nanoparticle compositions; assay type: physicochemical
[6] = Table 20-1, rows without footnote mark
[7] = Table 1, rows without footnote mark

SMILES | PDI [1, 6] | Size (nm) [1, 6] | EE (%) [2, 6] | IP-10 (IP-10; Table 20-4, formula (20-I)) | IL-6 (IL-6; Table 20-4, formula (20-I)) | pKa [5, 6] | PDI ([1]; Table 17-1) | Size (nm) ([1]; Table 17-1) | EE (%) ([2]; Table 17-1) | IP-10 (IP-10; Table 17-4) | Total Flux 3 hours ([3]; Table 20-2) | Total Flux 6 hours ([3]; Table 20-2) | Total Flux 24 hours ([3]; Table 20-2) | Total Flux Liver ([4]; Table 20-3, mice) | Total Flux Lung ([4]; Table 20-3, mice) | Total Flux Spleen ([4]; Table 20-3, mice) | Total Flux 3 hours ([3]; Table 17-2) | Total Flux 6 hours ([3]; Table 17-2) | Total Flux 24 hours ([3]; Table 17-2) | Total Flux Liver ([4]; Table 17-3, mice) | also measured
CCCCCCCCCCCCCCN(CCO)CCN(CCCCCCCCCCCC)CCCCCCCCCCCC [Compound 20-24, 2-((2-(Didodecylamino)ethyl)(tetradecyl)amino)ethan-1-ol] | 0.038 | 90.6 nm | 96.9% | 1678.6 | 67.1 | 6.06 |  |  |  |  | 7.47E+08 | 1.64E+08 | 9.72E+06 | 4.05E+07 | 1.08E+05 | 1.11E+06 |  |  |  |  | 
CCCCCCCCCN(CCCCCCCCC)CCN1CCNCC1 [Compound 19-1, N-Nonyl-N-(2-(piperazin-1-yl)ethyl)nonan-1-amine] |  |  |  |  |  |  |  |  |  |  |  |  |  |  |  |  |  |  |  |  | PDI ([1]; Table 19-1): 0.071; Size (nm) ([1]; Table 19-1): 98.0 nm; EE (%) ([2]; Table 19-1): 83.4%; Total Flux 3 hours ([3]; Table 19-2): 6.77E+05; Total Flux 6 hours ([3]; Table 19-2): 1.85E+06; Total Flux 24 hours ([3]; Table 19-2): 2.75E+05; IP-10 (IP-10; Table 19-4): 51.1; IP-10 induction, rank or comparison with IL-6 (in words) (IP-10): lowest IP-10 expression; Total Flux Liver ([4]; Table 19-3, mice): 8.53E+05; Total Flux Lung ([4]; Table 19-3, mice): 1.06E+04; Total Flux Spleen ([4]; Table 19-3, mice): 1.58E+04; IL-6 (IL-6; Table 19-4): 144.4; pKa ([5]; Table 19-1): 6.76
CCCCCCCCCCCCN(CCCCCCCCCCCC)CCN(CCO)CCCCCCCCC [Compound 20-17, 2-((2-(didodecylamino)ethyl)(nonyl)amino)ethan-1-ol] | 0.092 | 71.2 nm | 98.2% | 1207.0 | 6.3 | 6.25 |  |  |  |  | 1.97E+07 | 1.44E+07 | 1.54E+06 | 2.99E+06 | 2.79E+04 | 9.56E+04 |  |  |  |  | 
CCCCC/C=C\C/C=C\CCCCCCCCN(CCCCCCCC/C=C\C/C=C\CCCCC)CCN(CCO)CCCCCCCCCCCC [Compound 20-13, 2-((2-(Di((9Z,12Z)-octadeca-9,12-dien-1-yl)amino)ethyl)(dodecyl)amino)ethan-1-ol] | 0.057 | 74.3 nm | 97.7% | 70.0 | 87.8 | 5.83 |  |  |  |  | 7.01E+08 | 1.82E+09 | 7.39E+07 | 1.65E+08 | 9.09E+05 | 1.04E+07 |  |  |  |  | Total Flux Femur ([4]; Table 20-3, mice): 3.11E+05
CCCCC/C=C\C/C=C\CCCCCCCCN(CCCCCCCC/C=C\C/C=C\CCCCC)CCN1CCN(CCN(CCCCCCCCCCCC)CCN(CCCCCCCCCCCC)CCCCCCCCCCCC)CC1 [Compound 29, N^1-(2-(4-(2-(Di((9Z,12Z)-octadeca-9,12-dien-1-yl)amino)ethyl)piperazin-1-yl)ethyl)-N^1,N^2,N^2-tridodecylethane-1,2-diamine] |  |  |  |  |  |  |  |  |  |  |  |  |  |  |  |  |  |  |  |  | PDI [1, 7]: 0.060; Size (nm) ([1]; Table 1, rows without footnote mark (lipid:DOPE:cholesterol:PEG-DMG 40:20:38.5:1.5, Luc mRNA; MC3 standard formulation)): 105.3 nm; EE (%) [2, 7]: 48.8%; Total Flux 3 hours ([3]; Table 2): 1.22E+08; Total Flux 6 hours ([3]; Table 2): 2.51E+08; Total Flux 24 hours ([3]; Table 2): 2.69E+07; IP-10 (IP-10; Table 4): 3454; Total Flux Liver ([4]; Table 3, mice): 2.27E+07; Total Flux Lung ([4]; Table 3, mice): 4.70E+05; Total Flux Spleen ([4]; Table 3, mice): 2.97E+06; IL-6 (IL-6; Table 4): 108; pKa [5, 7]: 5.97
CCCCCCCCCCCCN(CCO)CCN(CCCCCCCC(=O)OCCCCCCCCC)CCCCCCCC(=O)OCCCCCCCCC [Compound 20-10, Dinonyl 8,8′-((2-(dodecyl(2-hydroxyethyl)amino)ethyl)azanediyl)dioctanoate] | 0.130 | 85.7 nm | 91.4% | 2356.8 | 739.0 | 6.42 |  |  |  |  | 5.05E+09 | 2.16E+09 | 2.54E+08 | 4.40E+08 | 5.01E+06 | 9.67E+07 |  |  |  |  | Total Flux Femur ([4]; Table 20-3, mice): 3.09E+06; IL-6 induction, rank within the named table (in words) (IL-6): highest

More lines, main results first:

PDI [1, 6] | Size (nm) [1, 6] | EE (%) [2, 6] | IP-10 (IP-10; Table 20-4, formula (20-I)) | IL-6 (IL-6; Table 20-4, formula (20-I)) | pKa [5, 6] | PDI ([1]; Table 17-1) | Size (nm) ([1]; Table 17-1) | EE (%) ([2]; Table 17-1) | IP-10 (IP-10; Table 17-4) | SMILES | Total Flux 3 hours ([3]; Table 20-2) | Total Flux 6 hours ([3]; Table 20-2) | Total Flux 24 hours ([3]; Table 20-2) | Total Flux Liver ([4]; Table 20-3, mice) | Total Flux Lung ([4]; Table 20-3, mice) | Total Flux Spleen ([4]; Table 20-3, mice) | Total Flux 3 hours ([3]; Table 17-2) | Total Flux 6 hours ([3]; Table 17-2) | Total Flux 24 hours ([3]; Table 17-2) | Total Flux Liver ([4]; Table 17-3, mice) | also measured
 |  |  |  |  |  | 0.148 | 76.1 nm | 95.04% | 148 | CCCCCCCCCCCCN(CCCO)CCCCCCCCCCCC [Compound 17-12, 3-(Didodecylamino)propan-1-ol] |  |  |  |  |  |  | 2.94E+06 | 2.54E+06 | 4.66E+05 | 4.94E+05 | particle size, rank within the named table (in words) [1]: smallest particles; Total Flux Lung ([4]; Table 17-3, mice): 4.89E+04; Total Flux Spleen ([4]; Table 17-3, mice): 7.81E+04; IL-6 (IL-6; Table 17-4): 83.1; pKa ([5]; Table 17-1): 6.83
 |  |  |  |  |  | 0.095 | 117.9 nm | 82.1% | 66.8 | CCCCC/C=C\C/C=C\CCCCCCCCN(CCO)CCCCCCCCC [Compound 17-3, 2-(Nonyl((9Z,12Z)-octadeca-9,12-dien-1-yl)amino)ethan-1-ol] |  |  |  |  |  |  | 5.58E+05 | 1.38E+06 | 9.90E+05 | 2.51E+05 | IP-10 induction, rank or comparison with IL-6 (in words) (IP-10): lowest IP-10 levels; Total Flux Lung ([4]; Table 17-3, mice): 1.56E+04; Total Flux Spleen ([4]; Table 17-3, mice): 1.02E+05; IL-6 (IL-6; Table 17-4): 6.97; IL-6 induction, rank within the named table (in words) (IL-6): lowest IL-6 levels; pKa ([5]; Table 17-1): 6.69
0.150 | 70.1 nm | 91.1% | 572.7 | 102 | 6.31 |  |  |  |  | CCCCCCCCCCCCN(CCO)CCN(CCCCCCCCC)CCCCCCCCC [Compound 20-18, 2-((2-(Dinonylamino)ethyl)(dodecyl)amino)ethan-1-ol] | 5.80E+09 | 6.48E+09 | 1.54E+09 | 4.83E+08 | 1.84E+06 | 2.36E+06 |  |  |  |  | Total Flux Femur ([4]; Table 20-3, mice): 3.78E+05
 |  |  |  |  |  | 0.176 | 90.4 nm | 89.22% | 222 | CCCCCCCCCCCCN(CCCCO)CCCCCCCCCCCC [Compound 17-13, 4-(Didodecylamino)butan-1-ol] |  |  |  |  |  |  | 1.10E+06 | 1.80E+06 | 7.95E+05 | 3.56E+05 | Total Flux Lung ([4]; Table 17-3, mice): 4.66E+04; Total Flux Spleen ([4]; Table 17-3, mice): 1.90E+05; IL-6 (IL-6; Table 17-4): 84.3; pKa ([5]; Table 17-1): 6.89
 |  |  |  |  |  | 0.239 | 165.0 nm | 30.3% | 243 | CCCCCCCCCN(CCO)CCCCCCCCC [Compound 17-10, 2-(Dinonylamino)ethan-1-ol] |  |  |  |  |  |  | 6.61E+05 | 1.16E+06 | 4.06E+05 | 2.00E+05 | particle size, rank within the named table (in words) [1]: largest particles; encapsulation efficiency, rank within the named table (in words) ([2]; comparison amongst compositions): did not encapsulate RNA with high efficiency; Total Flux Lung ([4]; Table 17-3, mice): 2.52E+04; Total Flux Spleen ([4]; Table 17-3, mice): 1.74E+04; IL-6 (IL-6; Table 17-4): 7.33; IL-6 induction, rank within the named table (in words) (IL-6): lowest IL-6 levels; pKa ([5]; Table 17-1): 2.85

Source: US10195156B2, “Compounds and compositions for intracellular delivery of agents” (ModernaTX, Inc., priority 2015, dated 2019)
